Data: patent US11325899B2, “Benzofurane and benzothiophene derivatives as PGE2 receptor modulators” (IDORSIA PHARMACEUTICALS LTD, priority 2017, dated 2022)

Assays:
PTGER2 (EP2) = molecular target: T1, PTGER2 (EP2) (Homo sapiens, UniProt P43116); assay: hEP2 b-arrestin assay (PathHunter HEK 293 PTGER2 b-arrestin cells); assay type: cell-based; details: antagonistic activity, beta-arrestin assay; read-out: hEP2 b-arr IC50
T1 construct: host or cells: HEK 293 (PathHunter PTGER2 b-arrestin cell line)
T1 sequence (P43116 whole entry): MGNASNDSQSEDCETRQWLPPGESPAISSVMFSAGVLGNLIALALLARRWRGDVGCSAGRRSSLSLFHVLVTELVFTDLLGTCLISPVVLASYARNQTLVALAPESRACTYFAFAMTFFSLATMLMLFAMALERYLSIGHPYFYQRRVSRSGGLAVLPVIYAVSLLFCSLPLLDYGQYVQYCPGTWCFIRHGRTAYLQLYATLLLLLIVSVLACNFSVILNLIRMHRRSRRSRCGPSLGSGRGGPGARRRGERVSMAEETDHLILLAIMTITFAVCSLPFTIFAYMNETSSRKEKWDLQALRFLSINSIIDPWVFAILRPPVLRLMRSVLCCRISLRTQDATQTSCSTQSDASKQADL
Method in brief: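 PathHunter HEK293 cells with ProLink-tagged EP2 and EA-β-arrestin 2 preincubated 15 min at 37 °C with compound (10 μM-2 nM or 1 μM-0.2 nM), then stimulated 120 min with 5 μM PGE2 (EC80). β-gal complementation read by chemiluminescence; IC50 from duplicate dose-response versus DMSO.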

PTGER4 (EP4) = molecular target: T2, PTGER4 (EP4) (Homo sapiens, UniProt P35408); assay: hEP4 b-arrestin assay (PathHunter HEK 293 PTGER4 b-arrestin cells); assay type: cell-based; details: antagonistic activity, beta-arrestin assay; read-out: hEP4 b-arr IC50
T2 construct: host or cells: HEK 293 (PathHunter PTGER4 b-arrestin cell line)
T2 sequence (P35408 whole entry): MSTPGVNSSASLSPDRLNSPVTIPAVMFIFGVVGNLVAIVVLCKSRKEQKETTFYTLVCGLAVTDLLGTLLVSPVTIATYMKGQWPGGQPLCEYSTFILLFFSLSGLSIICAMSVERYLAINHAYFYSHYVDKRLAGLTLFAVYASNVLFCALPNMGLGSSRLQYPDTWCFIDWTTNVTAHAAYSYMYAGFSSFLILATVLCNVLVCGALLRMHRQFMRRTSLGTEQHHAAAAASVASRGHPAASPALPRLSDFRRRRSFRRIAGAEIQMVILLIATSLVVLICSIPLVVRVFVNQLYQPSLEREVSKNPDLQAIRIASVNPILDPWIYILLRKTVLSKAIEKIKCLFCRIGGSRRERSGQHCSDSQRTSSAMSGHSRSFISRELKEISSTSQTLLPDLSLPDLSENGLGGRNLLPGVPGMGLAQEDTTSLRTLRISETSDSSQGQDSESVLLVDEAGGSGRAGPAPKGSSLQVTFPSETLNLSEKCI
Method in brief: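 PathHunter HEK 293 cells expressing ProLink-tagged human EP4 and EA-β-arrestin 2, seeded 24 h before. Compounds (10 μM–2 nM or 1 μM–0.2 nM) preincubated 15 min at 37 °C, then 20 nM PGE2 (EC80) for 120 min at 37 °C. β-gal complementation luminescence read; IC50 from duplicate dose-response curves versus DMSO control.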

Row | Structure (SMILES) | IC50 (PTGER2 (EP2)) [nM] | IC50 (PTGER4 (EP4)) [nM]
1 | CCCc1cc(-c2cc(NCCc3c(C)sc4c(C)cc(F)cc34)ncn2)ccc1CC(=O)O [Example 186, (4-{6-[2-(5-Fluoro-2,7-dimethyl-benzo[b]thiophen-3-yl)-ethylamino]-pyrimidin-4-yl}-2-propyl-phenyl)-acetic acid] | 22 | 242
2 | Cc1oc2c(Cl)cccc2c1CCNc1cc(-c2ccc(C(=O)O)c(OC3CCC3)c2)ncn1 [Example 137, 4-{6-[2-(7-Chloro-2-methyl-benzofuran-3-yl)-ethylamino]-pyrimidin-4-yl}-2-cyclobutoxy-benzoic acid] | 15 | 258
3 | COc1cc(Cl)cc2c(CCNc3cc(-c4ccc(C(=O)O)c(OC5CCC5)c4)ncn3)c(C)oc12 [Example 133, 4-{6-[2-(5-Chloro-7-methoxy-2-methyl-benzofuran-3-yl)-ethylamino]-pyrimidin-4-yl}-2-cyclobutoxy-benzoic acid] | 25 | 74
4 | CCOc1cc(-c2cc(NCCc3c(C)sc4c(C)ccc(F)c34)ncn2)ccc1OCC(=O)O [Example 118, (2-Ethoxy-4-{6-[2-(4-fluoro-2,7-dimethyl-benzo[b]thiophen-3-yl)-ethylamino]-pyrimidin-4-yl}-phenoxy)-acetic acid] | 16 | 29
5 | Cc1sc2c(C)cc(F)cc2c1CCNc1cc(-c2ccc(C(=O)O)c(OC(F)F)c2)ncn1 [Example 115, 2-Difluoromethoxy-4-{6-[2-(5-fluoro-2,7-dimethyl-benzo[b]thiophen-3-yl)-ethylamino]-pyrimidin-4-yl}-benzoic acid] | 16 | 208
6 | CCOc1cc(-c2cc(NCCc3c(C#N)sc4c(C)cc(F)cc34)ncn2)ccc1CC(=O)O [Example 104, (4-{6-[2-(2-Cyano-5-fluoro-7-methyl-benzo[b]thiophen-3-yl)-ethylamino]-pyrimidin-4-yl}-2-ethoxy-phenyl)-acetic acid] | 36 | 161
7 | CCOc1cc(-c2cc(NCCc3c(C)sc4c(OC)ccc(F)c34)ncn2)ccc1CC(=O)O [Example 105, (2-Ethoxy-4-{6-[2-(4-fluoro-7-methoxy-2-methyl-benzo[b]thiophen-3-yl)-ethylamino]-pyrimidin-4-yl}-phenyl)-acetic acid] | 33 | 58
8 | CCOc1cc(-c2cc(NCCc3c(C)sc4c(C)cc(F)cc34)ncn2)ccc1CC(=O)O [Example 110, (2-Ethoxy-4-{6-[2-(5-fluoro-2,7-dimethyl-benzo[b]thiophen-3-yl)-ethylamino]-pyrimidin-4-yl}-phenyl)-acetic acid] | 25 | 403
9 | COc1ccc(Cl)c2c(CCNc3cc(-c4ccc(C(=O)O)c(O)c4)ncn3)c(C)sc12 [Example 9, 4-{6-[2-(4-Chloro-7-methoxy-2-methyl-benzo[b]thiophen-3-yl)-ethylamino]-pyrimidin-4-yl}-2-hydroxy-benzoic acid] | 118 | 1650
10 | Cc1sc2c(C)cccc2c1CCNc1cc(-c2ccc(C(=O)O)cc2)ncn1 [Example 8, 4-{6-[2-(2,7-Dimethyl-benzo[b]thiophen-3-yl)-ethylamino]-pyrimidin-4-yl}-benzoic acid] | 16 | 1170
11 | COc1cc(-c2cc(NCCc3c(C#N)sc4c(C)cc(F)cc34)ncn2)ccc1CC(=O)O [Example 168, (4-{6-[2-(2-Cyano-5-fluoro-7-methyl-benzo[b]thiophen-3-yl)-ethylamino]-pyrimidin-4-yl}-2-methoxy-phenyl)-acetic acid] | 65 | 66
12 | CCOc1nc(-c2cc(NCCc3c(C)sc4c(C)cc(F)cc34)ncn2)sc1C(=O)O [Example 160, 4-Ethoxy-2-{6-[2-(5-fluoro-2,7-dimethyl-benzo[b]thiophen-3-yl)-ethylamino]-pyrimidin-4-yl}-thiazole-5-carboxylic acid] | 15 | 16
13 | CCCCOc1cc(-c2cc(NCCc3c(C)sc4c(C)cc(F)cc34)ncn2)cc(F)c1C(=O)O [Example 144, 2-Butoxy-6-fluoro-4-{6-[2-(5-fluoro-2,7-dimethyl-benzo[b]thiophen-3-yl)-ethylamino]-pyrimidin-4-yl}-benzoic acid] | 26 | 92
14 | CCOc1cc(-c2cc(NCCc3c(C)sc4c(C)cc(F)cc34)ncn2)ccc1C(=O)C(=O)O [Example 189, (2-Ethoxy-4-{6-[2-(5-fluoro-2,7-dimethyl-benzo[b]thiophen-3-yl)-ethylamino]-pyrimidin-4-yl}-phenyl)-oxo-acetic acid] | 20 | 92
15 | CCOc1cc(-c2cc(NCCc3c(C)sc4c(C)cc(F)cc34)ncn2)sc1C(=O)NS(N)(=O)=O [Example 156, 3-Ethoxy-5-(6-((2-(5-fluoro-2,7-dimethylbenzo[b]thiophen-3-yl)ethyl)amino)pyrimidin-4-yl)-N-sulfamoylthiophene-2-carboxamide] | 5 | 26
16 | COc1ccc(F)c2c(CCNc3cc(-c4ccc(C(=O)O)c(OC5CCC5)c4)ncn3)c(C)sc12 [Example 134, 2-Cyclobutoxy-4-{6-[2-(4-fluoro-7-methoxy-2-methyl-benzo[b]thiophen-3-yl)-ethylamino]-pyrimidin-4-yl}-benzoic acid] | 27 | 893
17 | CCOc1cc(-c2cc(NCCc3c(C)sc4c(C)cc(F)cc34)ncn2)sc1/C=C/C(=O)O [Example 96, (E)-3-(3-Ethoxy-5-{6-[2-(5-fluoro-2,7-dimethyl-benzo[b]thiophen-3-yl)-ethylamino]-pyrimidin-4-yl}-thiophen-2-yl)-acrylic acid] | 20 | 16
18 | CCOc1cc(-c2cc(NCCc3c(C)sc4c(C)cc(F)cc34)ncn2)ccc1-c1noc(=O)[nH]1 [Example 155, 3-(2-Ethoxy-4-{6-[2-(5-fluoro-2,7-dimethyl-benzo[b]thiophen-3-yl)-ethylamino]-pyrimidin-4-yl}-phenyl)-[1,2,4]oxadiazol-5(4H)-one [tautomeric form: 3-(2-ethoxy-4-(6-((2-(5-fluoro-2,7-dimethylbenzo[b]thiophen-3-yl)ethyl)amino)pyrimidin-4-yl)phenyl)-[1,2,4]oxadiazol-5-ol]] | 18 | 47
19 | CCOc1cc(-c2cc(NCCc3c(C)oc4c(Cl)cccc34)ncn2)ccc1OCC(=O)O [Example 120, (4-{6-[2-(7-Chloro-2-methyl-benzofuran-3-yl)-ethylamino]-pyrimidin-4-yl}-2-ethoxy-phenoxy)-acetic acid] | 29 | 290
20 | Cc1sc2c(C)cc(F)cc2c1CCNc1cc(-c2ccc(C(=O)O)c(OC3CCC3)c2)ncn1 [Example 138, 2-Cyclobutoxy-4-{6-[2-(5-fluoro-2,7-dimethyl-benzo[b]thiophen-3-yl)-ethylamino]-pyrimidin-4-yl}-benzoic acid] | 14 | 269
21 | COc1ccc(Cl)c2c(CCNc3cc(-c4ccc(C(=O)O)c(OC5CCC5)c4)ncn3)c(C)sc12 [Example 135, 4-{6-[2-(4-Chloro-7-methoxy-2-methyl-benzo[b]thiophen-3-yl)-ethylamino]-pyrimidin-4-yl}-2-cyclobutoxy-benzoic acid] | 14 | 235
22 | Cc1sc2c(C)ccc(F)c2c1CCNc1cc(-c2cc(F)c(C(=O)O)c(OC3CCC3)c2)ncn1 [Example 148, 2-Cyclobutoxy-6-fluoro-4-{6-[2-(4-fluoro-2,7-dimethyl-benzo[b]thiophen-3-yl)-ethylamino]-pyrimidin-4-yl}-benzoic acid] | 30 | 43
23 | CCOc1cc(-c2cc(NCCc3c(C)sc4c(C)cc(F)cc34)ncn2)sc1C(=O)NS(C)(=O)=O [Example 157, N-(3-Ethoxy-5-{6-[2-(5-fluoro-2,7-dimethyl-benzo[b]thiophen-3-yl)-ethylamino]-pyrimidin-4-yl}-thiophene-2-carbonyl)-methanesulfonamide] | 8 | 42
24 | CCOc1cc(-c2cc(NCCc3c(C)sc4c(C)cc(F)cc34)ncn2)ccc1OCCC(=O)O [Example 143, 3-(2-Ethoxy-4-{6-[2-(5-fluoro-2,7-dimethyl-benzo[b]thiophen-3-yl)-ethylamino]-pyrimidin-4-yl}-phenoxy)-propionic acid] | 52 | 63
